Consider 10 compounds from patent US6376480B1, “Vitamin D derivatives with substituents at C-25, process for their production, intermediate products and use for the production of pharmaceutical agents” (Schering Aktiengesellschaft, priority 1995, dated 2002).

Data set [1] relates to HL 60 cells. Briefly: differentiation induction of HL 60 cells to macrophages (NBT reduction). The data set is classed as cell-based, human. To be noted: DR = test substance dose/calcitriol dose for comparable semi-maximum effects; 96 hours incubation. Here is the method: It is known in the literature (Mangelsdorf, D. J. et al., J. Cell. Biol. 98: 391-398 (1984)), that the treatment of human leukemia cells (promyelocyte cell line HL 60) in vitro with calcitriol induces the differentiation of cells to macrophages.
HL 60 cells are cultivated in tissue culture medium (RPMI 10% fetal calf serum) at 37° C. in an atmosphere of 5% CO2 in air.
For substance testing, the cells are centrifuged off, and 2.0×10^5 cells/ml in phenol red-free tissue culture medium is taken up. The test substances are dissolved in ethanol and diluted with tissue culture medium without phenol red to the desired concentration. The dilution stages are mixed with the cell suspension at a ratio of 1:10, and 100 μl each of this cell suspension that is mixed with substance is pipetted into an indentation of a 96-hole plate. For control, a cell suspension is mixed analogously with the solvent.
After incubation for 96 hours at 37° C. in 5% CO2 in air, 100 μl of an NBT-TPA solution (nitro blue tetrazolium (NBT), final concentration in the batch of 1 mg/ml, tetradecanoyl phorbolmyristate-13-acetate (TPA), final concentration in the batch of 2×10^−7 mol/l) is pipetted into each indentation of the 96-hole plate in the cell suspension.
By incubation for 2 hours at 37° C. and 5% CO2 in air, NBT is reduced to insoluble formazan because of the intracellular oxygen radical release, stimulated by TPA, in the cells that are differentiated to macrophages.
To complete the reaction, the indentations of the 96-hole plate are suctioned off, and the cells are affixed to the bottom of the plate by adding methanol and dried after affixing. To dissolve the intracellular formazan crystals that are formed, 100 μl of potassium hydroxide (2 mol/l) and 100 μl of dimethyl sulfoxide are pipetted into-each indentation and ultrasonically treated for 1 minute. The concentration of formazan is measured by spectrophotometry at 650 nm.
As a yardstick for the differentiation induction of HL 60 cells to macrophages, the concentration of formed formazan applies.

The next data set deals with healthy male rats. Nature of the data set: acute hypercalcemic action after one-time subcutaneous administration. The data set is classed as in vivo, rat. The conditions noted are these: DR = test substance dose/calcitriol dose for comparable effects, serum-calcium. The protocol:
To determine the acute hypercalcemic action of various calcitriol derivatives, the test that is described below is carried out:
The action of control (solution base), reference substance (1,25(OH)2—D3=calcitriol) and test substance is tested in each case after one-time subcutaneous administration in groups of 10 healthy male rats (140-170 g). During the testing time, the rats are kept in special cages to determine the excretion of water and mineral substances. Urine is collected in 2 fractions (0-16 hours and 16-22 hours). An oral dose of calcium (0.1 mmol of calcium in 6.5% alpha-hydroxypropylcellulose, 5 ml/animal) replaces at 1600 hours the calcium intake that is lacking by food deprivation. At the end of the test, the animals are killed by decapitation and exsanguinated to determine the serum-calcium values. For the primary screen test in vivo, an individual standard dose (200 μg/kg) is tested. For selected substances, the result is supported by establishing a dose-effect relation.
A hypercalcemic action is shown in serum-calcium level values that are higher than in the control.
The significance of differences between substance groups and controls and between test substance and reference substance are supported with suitable statistical processes.

A further data set addresses T1, calcitriol receptor (Sus scrofa, UniProt A3RGC1).
T1 sequence (A3RGC1 1-427): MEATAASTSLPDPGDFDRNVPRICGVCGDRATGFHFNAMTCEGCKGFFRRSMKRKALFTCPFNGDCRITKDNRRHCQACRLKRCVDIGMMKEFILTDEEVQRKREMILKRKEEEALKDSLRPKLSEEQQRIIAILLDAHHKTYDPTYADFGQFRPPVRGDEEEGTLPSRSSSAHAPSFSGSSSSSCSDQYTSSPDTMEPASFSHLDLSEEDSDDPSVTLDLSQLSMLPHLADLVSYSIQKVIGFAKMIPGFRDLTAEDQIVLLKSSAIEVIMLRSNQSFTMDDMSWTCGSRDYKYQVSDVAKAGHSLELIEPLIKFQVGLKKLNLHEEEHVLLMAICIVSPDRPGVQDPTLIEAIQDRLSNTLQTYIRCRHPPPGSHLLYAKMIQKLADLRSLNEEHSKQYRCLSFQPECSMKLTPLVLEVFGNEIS
Briefly: calcitriol-receptor test (competition with 3H-calcitriol). To be noted: quotient of concentrations of test substance and calcitriol for 50% competition, receptor protein from intestines of juvenile pigs.

Data set [2] deals with HL 60 cells. Briefly: antagonism of the action of calcitriol in HL 60 cells. Type of data set: cell-based, human.

Method for calcitriol receptor: The vitamin D activity of the substances according to the invention is determined with the aid of the calcitriol-receptor test. It is carried out with use of a specific receptor protein from the intestines of juvenile pigs.
Then, the samples are centrifuged at 10,000×g for 5 minutes at 4° C. The supernatant is decanted and measured in a β-counter after 1 hour of equilibration in Picofluor 15™.
The competition curves that are obtained with various concentrations of test substance as well as of reference substance (unlabeled calcitriol) at constant concentration of the reference substance (^3H-calcitriol) are placed in relation to one another and a competition factor (KF) is determined.
It is defined as a quotient of the concentrations of the respective test substance and the reference substance, which are necessary for 50% competition: [formula]

For the compound `C=C1/C(=C\C=C2/CCC[C@]3(C)[C@@H]([C@H](C)/C=C/[C@@H](O)C4(C(=O)C(C)(C)C)CC4)CC[C@@H]23)C[C@@H](O)C[C@@H]1O` [Compound 15b, (5Z,7E,22E)-(1S,3R,24R)-25-(2,2-Dimethyl-1-oxopropyl)-26,27-cyclo-9,10-secocholesta-5,7,10(19),22-tetraene-1,3,24-triol], the “Dose Ratio for Differentiation Induction in HL 60 Cells” value in the data set with HL 60 cells [1] came out at 1.1. Also, the “dose ratio for hypercalcemia” value in the data set on healthy male rats is recorded as 300. In addition, at calcitriol receptor, the “Competition Factor KF for Receptor Bonding” value (from here on “Competition Factor KF”) was determined as 6.
For `C=C1C(=CC=C2CCCC3(C)C2CCC3C(C)C=CC(O)C2(C(C)=O)CC2)CC(O)CC1O` [Compound 7b, (5Z,7E,22E)-(1S,3R,24R)-25-Acetyl-26,27-cyclo-9,10-secocholesta-5,7,10(19),22-tetraene-1,3,24-triol], in that order: 0.5, 300 and 1.
For `C=C1/C(=C\C=C2/CCC[C@]3(C)[C@@H]([C@H](C)/C=C/[C@@H](O)C4(C(=O)CCC)CC4)CC[C@@H]23)C[C@@H](O)C[C@@H]1O` [Compound 8b, (5Z,7E,22E)-(1S,3R,24R)-25-(1-oxobutyl)-26,27-cyclo-9,10-secocholesta-5,7,10(19),22-tetraene-1,3,24-triol], in that order: 0.9, 100 and 2.
For the compound `C=C1/C(=C\C=C2/CCC[C@]3(C)[C@@H]([C@H](C)CCCC(C)(C)O)CC[C@@H]23)C[C@@H](O)C[C@@H]1O` [Calcitriol, 1α,25-dihydroxy vitamin D3, reference compound], the “Dose Ratio for Differentiation Induction in HL 60 Cells” value with HL 60 cells [1] was determined as 1. For the same compound, the “dose ratio for hypercalcemia” value in the data set with healthy male rats is on record as 1.
Consider `C=C1/C(=C\C=C2/CCC[C@]3(C)[C@@H]([C@H](C)/C=C/[C@@H](O)C4(C(=O)CCCC)CC4)CC[C@@H]23)C[C@@H](O)C[C@@H]1O` [Compound 6b, (5Z,7E,22E)-(1S,3R,24R)-25-(1-Oxopentyl)-26,27-cyclo-9,10-secocholesta-5,7,10(19),22-tetraene-1,3,24-triol], for which the “Dose Ratio for Differentiation Induction in HL 60 Cells” value in the data set with HL 60 cells [1] turned out to be 58. The “antagonism of the action of calcitriol in HL 60 cells” value with HL 60 cells [2] is on record as “antagonize the action of calcitriol”. Also, the “Competition Factor KF” value at calcitriol receptor is given as 2.
On the same counts, the results for `C=C1/C(=C\C=C2/CCC[C@]3(C)[C@@H](C(C)(C)/C=C/[C@@H](O)C4(C(=O)CCCCCCC)CC4)CC[C@@H]23)C[C@@H](O)C[C@@H]1O` [Compound 43b, (5Z,7E,22E)-(1S,3R,24R)-20-methyl-25-(1-oxooctyl)-26,27-cyclo-9,10-secocholesta-5,7,10(19),22-tetraene-1,3,24-triol] are above 1000, “antagonize the action of calcitriol” and 33.
On to `C=C1/C(=C\C=C2/CCC[C@]3(C)[C@@H]([C@H](C)/C=C/[C@@H](O)C4(C(=O)C#CCCC)CC4)CC[C@@H]23)C[C@@H](O)C[C@@H]1O` [Compound 19b, (5Z,7E,22E)-(1S,3R,24R)-25-(1-Oxo-2-hexinyl)-26,27-cyclo-9,10-secocholesta-5,7,10(19),22-tetraene-1,3,24-triol], for which the “Dose Ratio for Differentiation Induction in HL 60 Cells” value in the data set with HL 60 cells [1] is given as 1.5. Further, the “dose ratio for hypercalcemia” value with healthy male rats is listed as above 300. Moreover, on calcitriol receptor, the “Competition Factor KF” value was found to be 2.
Regarding `CCCCC(=O)C1([C@H](O)/C=C/[C@@H](C)[C@H]2CC[C@H]3/C(=C/C=C4C[C@@H](O)C[C@H](O)C4)CCC[C@]23C)CC1` [Compound 58b, (7E,22E)-(1R,3R,24R)-25-(1-Oxopentyl)-26,27-cyclo-19-nor-9,10-secocholesta-5,7,22-triene-1,3,24-triol], the “Dose Ratio for Differentiation Induction in HL 60 Cells” value in the data set with HL 60 cells [1] is listed as 160. Besides, the “antagonism of the action of calcitriol in HL 60 cells” value in the data set with HL 60 cells [2] is “antagonize the action of calcitriol”. The “Competition Factor KF” value at calcitriol receptor is given as 3.
On the same counts, the results for `C=C1/C(=C\C=C2/CCC[C@]3(C)[C@@H]([C@H](C)/C=C/[C@@H](O)C4(C(=O)CCCCC)CC4)CC[C@@H]23)C[C@@H](O)C[C@@H]1O` [Compound 9b, (5Z,7E,22E)-(1S,3R,24R)-25-(1-Oxohexyl)-26,27-cyclo-9,10-secocholesta-5,7,10(19),22-tetraene-1,3,24-triol] are above 180, “antagonize the action of calcitriol” and 3.
For `CCCCCC(=O)C1([C@H](O)/C=C/[C@@H](C)[C@H]2CC[C@H]3/C(=C/C=C4C[C@@H](O)C[C@H](O)C4)CCC[C@]23C)CC1` [Compound 61b, (7E,22E)-(1R,3R,24R)-25-(1-Oxohexyl)-26,27-cyclo-19-nor-9,10-secocholesta-5,7,22-triene-1,3,24-triol], in that order: above 1000, “antagonize the action of calcitriol” and 3.
